Source: ChEMBL document CHEMBL5724914, “Linking interpersonal differences in gut microbiota composition and drug biotransformation activity” (2024)

Assays:
[1] = (§1) The drug is tested on WLS-090 corresponding to human gut metagenome with ENA study accession number: PRJEB37062 and ENA sample accession number: ERS12561753 for biotransformation under anaerobic condition. The drug concentrations were measured over 9 timepoints collected between 0 and 24 hours of incubation by liquid-chromatography-coupled mass spectrometry (LC–MS); conditions: 2 µM
[2] = as §1, with “WLS-370” for “WLS-090”, “ERS12561793” for “ERS12561753”; conditions: 2 µM
[3] = as §1, with “WLS-170” for “WLS-090”, “ERS12561762” for “ERS12561753”; conditions: 2 µM
[4] = as §1, with “Z-023” for “WLS-090”, “to” for “to human gut”, “ERS12561822” for “ERS12561753”; conditions: 2 µM
[5] = human gut metagenome, 24 h, 2 µM
[6] = human gut metagenome, 24 h, 2 µM; remark: listed apart in the source
[7] = as §1, with “Z-004” for “WLS-090”, “to” for “to human gut”, “ERS12561804” for “ERS12561753”; conditions: 2 µM
[8] = human gut metagenome, 24 h, 2 µM; remark: listed apart in the source
[9] = human gut metagenome, 24 h, 2 µM; remark: listed apart in the source
[10] = as §1, with “Z-009” for “WLS-090”, “pig” for “human”, “ERS12561809” for “ERS12561753”; conditions: 2 µM
[11] = human gut metagenome, 24 h, 2 µM; remark: listed apart in the source
[12] = human gut metagenome, 24 h, 2 µM; remark: listed apart in the source
[13] = human gut metagenome, 24 h, 2 µM; remark: listed apart in the source
[14] = human gut metagenome, 24 h, 2 µM; remark: listed apart in the source
[15] = human gut metagenome, 24 h, 2 µM; remark: listed apart in the source
[16] = as §1, with “Z-001” for “WLS-090”, “mouse” for “human”, “ERS12561801” for “ERS12561753”; conditions: 2 µM
[17] = human gut metagenome, 24 h, 2 µM; remark: listed apart in the source
[18] = human gut metagenome, 24 h, 2 µM; remark: listed apart in the source
[19] = human gut metagenome, 24 h, 2 µM; remark: listed apart in the source
[20] = human gut metagenome, 24 h, 2 µM; remark: listed apart in the source
Note: call rule not given here.

| Bacterial Biotransformation [1] | Bacterial Biotransformation [2] | Bacterial Biotransformation [3] | Bacterial Biotransformation [4] | Bacterial Biotransformation [5] | Bacterial Biotransformation [6] | Bacterial Biotransformation [7] | Bacterial Biotransformation [8] | Bacterial Biotransformation [9] | Bacterial Biotransformation [10] | Bacterial Biotransformation [11] | Bacterial Biotransformation [12] | Bacterial Biotransformation [13] | Bacterial Biotransformation [14] | Bacterial Biotransformation [15] | Bacterial Biotransformation [16] | Bacterial Biotransformation [17] | Bacterial Biotransformation [18] | Bacterial Biotransformation [19] | Bacterial Biotransformation [20] | SMILES |
| --- | --- | --- | --- | --- | --- | --- | --- | --- | --- | --- | --- | --- | --- | --- | --- | --- | --- | --- | --- | --- |
| Compound metabolized | Compound metabolized | Compound metabolized | Compound metabolized | Compound NOT metabolized | Compound metabolized | Compound NOT metabolized | Compound metabolized | Compound NOT metabolized | Compound NOT metabolized | Compound NOT metabolized | Compound NOT metabolized | Compound NOT metabolized | Compound metabolized | Compound metabolized | Compound NOT metabolized | Compound NOT metabolized | Compound NOT metabolized | Compound NOT metabolized | Compound metabolized | CN1CCC(OC(c2ccccc2)c2ccccc2)CC1 |
| Compound metabolized | Compound metabolized |  | Compound metabolized | Compound metabolized | Compound metabolized | Compound NOT metabolized | Compound metabolized |  | Compound NOT metabolized | Compound metabolized | Compound metabolized | Compound NOT metabolized | Compound metabolized | Compound metabolized | Compound NOT metabolized | Compound metabolized | Compound metabolized |  | Compound NOT metabolized | CC1=C(CC(=O)O)c2cc(F)ccc2/C1=C\c1ccc([S+](C)[O-])cc1 (configuration not stated) |
| Compound metabolized | Compound metabolized | Compound metabolized | Compound metabolized | Compound metabolized | Compound metabolized | Compound NOT metabolized | Compound metabolized | Compound NOT metabolized | Compound NOT metabolized | Compound metabolized | Compound metabolized | Compound NOT metabolized | Compound metabolized | Compound metabolized | Compound NOT metabolized | Compound NOT metabolized | Compound metabolized | Compound metabolized | Compound metabolized | CCOC(=O)[C@H](CCc1ccccc1)N[C@@H](C)C(=O)N1Cc2ccccc2C[C@H]1C(=O)O |
| Compound metabolized | Compound metabolized | Compound metabolized |  | Compound metabolized | Compound metabolized | Compound metabolized | Compound metabolized | Compound metabolized |  | Compound metabolized | Compound metabolized | Compound metabolized | Compound metabolized | Compound metabolized |  | Compound metabolized | Compound metabolized | Compound metabolized | Compound metabolized | CC(=O)Oc1ccc(C(c2ccc(OC(C)=O)cc2)c2ccccn2)cc1 [BISACODYL] |
| Compound metabolized | Compound metabolized | Compound NOT metabolized |  | Compound NOT metabolized | Compound metabolized |  | Compound metabolized | Compound NOT metabolized |  | Compound NOT metabolized | Compound NOT metabolized | Compound NOT metabolized | Compound metabolized | Compound NOT metabolized | Compound metabolized | Compound NOT metabolized | Compound metabolized | Compound NOT metabolized | Compound NOT metabolized | COCCCC/C(=N\OCCN)c1ccc(C(F)(F)F)cc1.O=C(O)/C=C\C(=O)O [FLUVOXAMINE MALEATE] |
| Compound metabolized | Compound NOT metabolized | Compound NOT metabolized |  | Compound metabolized | Compound metabolized |  | Compound NOT metabolized | Compound NOT metabolized |  | Compound metabolized | Compound NOT metabolized | Compound metabolized | Compound metabolized | Compound metabolized |  | Compound NOT metabolized | Compound NOT metabolized | Compound NOT metabolized | Compound NOT metabolized | O=C([O-])C[C@H](O)C[C@H](O)/C=C/c1c(C2CC2)nc2ccccc2c1-c1ccc(F)cc1.O=C([O-])C[C@H](O)C[C@H](O)/C=C/c1c(C2CC2)nc2ccccc2c1-c1ccc(F)cc1.[Ca+2] [PITAVASTATIN CALCIUM] |
| Compound metabolized | Compound metabolized | Compound metabolized | Compound metabolized | Compound metabolized | Compound metabolized | Compound metabolized | Compound metabolized | Compound NOT metabolized | Compound metabolized | Compound metabolized | Compound metabolized | Compound NOT metabolized | Compound metabolized | Compound metabolized | Compound metabolized | Compound metabolized | Compound metabolized |  | Compound metabolized | C[C@]12C=CC(=O)C=C1CC[C@@H]1[C@@H]2C(=O)C[C@@]2(C)[C@H]1CC[C@]2(O)C(=O)CO [PREDNISONE] |
| Compound NOT metabolized | Compound NOT metabolized | Compound metabolized |  | Compound NOT metabolized | Compound NOT metabolized | Compound NOT metabolized | Compound NOT metabolized | Compound NOT metabolized | Compound metabolized | Compound NOT metabolized | Compound metabolized | Compound NOT metabolized | Compound NOT metabolized | Compound NOT metabolized | Compound NOT metabolized | Compound NOT metabolized | Compound NOT metabolized | Compound NOT metabolized | Compound metabolized | CN(C/C=C/C#CC(C)(C)C)Cc1cccc2ccccc12 [TERBINAFINE] |
| Compound metabolized | Compound metabolized | Compound metabolized | Compound metabolized | Compound metabolized | Compound metabolized | Compound metabolized | Compound metabolized | Compound metabolized | Compound metabolized | Compound metabolized | Compound metabolized | Compound metabolized | Compound metabolized |  | Compound metabolized | Compound metabolized | Compound metabolized | Compound metabolized | Compound metabolized | CCS(=O)(=O)CCn1c([N+](=O)[O-])cnc1C [TINIDAZOLE] |
| Compound metabolized | Compound metabolized | Compound metabolized | Compound metabolized | Compound metabolized | Compound metabolized | Compound NOT metabolized | Compound metabolized | Compound NOT metabolized | Compound NOT metabolized | Compound metabolized | Compound metabolized | Compound metabolized | Compound metabolized | Compound metabolized | Compound metabolized | Compound metabolized |  | Compound metabolized |  | N#Cc1ccc2[nH]cc(CCCCN3CCN(c4ccc5oc(C(N)=O)cc5c4)CC3)c2c1 [VILAZODONE] |
